Activity calls are given as the source filed them. The calls are words filed in the database; no cut-off is given here.
Columns and labels:
[1] = Tmax in Wistar rat plasma at 10 mg/kg, ip measured upto 8 hrs post dose by LC-MS/MS analysis; assay type: ADME, organism-based; details: in vivo
[2] = Tmax in Wistar rat brain at 10 mg/kg, ip measured upto 8 hrs post dose by LC-MS/MS analysis; assay type: ADME, organism-based; details: in vivo
[3] = Unbound clearence in Wistar rat plasma at 10 mg/kg, ip measured upto 8 hrs post dose by LC-MS/MS analysis; assay type: ADME, organism-based; details: in vivo
[4] = Half life in Wistar rat plasma at 10 mg/kg, ip measured upto 8 hrs post dose by LC-MS/MS analysis; assay type: ADME, organism-based; details: in vivo
[5] = AUCinfinity in Wistar rat plasma at 10 mg/kg, ip measured upto 8 hrs post dose by LC-MS/MS analysis; assay type: ADME, organism-based; set-up: dose 10 mg/kg, time < 8 hrs, route ip; details: in vivo
[6] = target: Relaxin-3 receptor 1 (Homo sapiens) (UniProt Q9NSD7); assay: Negative allosteric modulator activity at human RXFP3 expressed in CHO-K1 cells assessed as forskolin-induced cAMP accumulation at 3 to 30 uM measured after 30 mins in presence of relaxin-3 by TR-FRET assay; assay type: functional, cell-based; details: filed as negative allosteric modulator, dose 3-30 µM
Relaxin-3 receptor 1 = target: T1, Relaxin-3 receptor 1 (Homo sapiens, UniProt Q9NSD7); assay: Antagonist activity at human RXFP3 expressed in CHO-K1 cells assessed as inhibition of relaxin-3 stimulated ERK1/2 phosphorylation preincubated for 15 mins followed by relaxin-3 addition for 5 mins; assay type: functional, cell-based
T1 sequence (Q9NSD7 whole entry): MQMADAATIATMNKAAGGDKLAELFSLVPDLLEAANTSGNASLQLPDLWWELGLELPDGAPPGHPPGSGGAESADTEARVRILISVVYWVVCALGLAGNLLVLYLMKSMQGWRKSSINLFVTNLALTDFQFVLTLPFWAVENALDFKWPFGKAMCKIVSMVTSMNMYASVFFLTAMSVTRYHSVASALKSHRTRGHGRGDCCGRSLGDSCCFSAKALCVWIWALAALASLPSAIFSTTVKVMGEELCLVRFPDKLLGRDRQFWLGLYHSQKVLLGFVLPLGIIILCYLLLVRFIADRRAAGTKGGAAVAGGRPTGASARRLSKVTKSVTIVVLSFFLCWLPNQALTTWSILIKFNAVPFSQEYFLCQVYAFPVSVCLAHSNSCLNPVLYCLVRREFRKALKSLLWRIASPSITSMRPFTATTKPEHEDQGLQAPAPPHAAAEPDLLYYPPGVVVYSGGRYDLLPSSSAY

[7] = target: Relaxin-3 receptor 2 (Homo sapiens) (UniProt Q8TDU9); assay: Antagonist activity at human RXFP4 expressed […]-K1 cells assessed as forskolin-induced cAMP accumulation at 100 uM incubated for 30 mins in presence of relaxin 3 relative to control; assay type: functional, cell-based; set-up: scale not given: the % may be the effect or the level left
Rattus norvegicus = assay: In vivo antagonist activity at RXFP3 in Wistar rat assessed as decrease in R3/I5 induced food intake at 10 mg/kg, ip administered 1 hr prior to R3/I5 treatment and measured after 2 hrs; assay type: functional, organism-based; details: time 3.0 hrs
[8] = Efflux ratio of apparent permeability across basolateral to apical side over apical to basolateral side in MDCK-MDR1 cells measured upto 90 min by LC-MS/MS analysis; assay type: ADME, cell-based, Canis lupus familiaris; details: dog, mdck-mdr1, 1.5 h
[9] = target: 5-hydroxytryptamine receptor 2C (Homo sapiens) (UniProt P28335); assay: Inhibition of 5HT2C receptor (unknown origin) at 10 uM relative to control
[10] = target: Sigma intracellular receptor 2 (Homo sapiens, UniProt Q5BJF2); assay: Inhibition of sigma-2 receptor (unknown origin)
[11] = target: Alpha-1B adrenergic receptor (Homo sapiens) (UniProt P35368); assay: Inhibition of adrenergic alpha-1B receptor (unknown origin) at 10 uM relative to control
[12] = target: Alpha-2B adrenergic receptor (Homo sapiens) (UniProt P18089); assay: Inhibition of adrenergic alpha-2B receptor (unknown origin) at 10 uM relative to control
[13] = target: Alpha-2C adrenergic receptor (Homo sapiens) (UniProt P18825); assay: Inhibition of adrenergic alpha-2C receptor (unknown origin) at 10 uM relative to control
[14] = target: Beta-1 adrenergic receptor (Homo sapiens) (UniProt P08588); assay: Inhibition of adrenergic beta-1 receptor (unknown origin) at 10 uM relative to control
[15] = target: Beta-3 adrenergic receptor (Homo sapiens) (UniProt P13945); assay: Inhibition of adrenergic beta-3 receptor (unknown origin) at 10 uM relative to control
[16] = target: D(1A) dopamine receptor (Homo sapiens) (UniProt P21728); assay: Inhibition of dopamine D1 receptor (unknown origin) at 10 uM relative to control
[17] = target: D(3) dopamine receptor (Homo sapiens) (UniProt P35462); assay: Inhibition of dopamine D3 receptor (unknown origin) at 10 uM relative to control
[18] = target: D(1B) dopamine receptor (Homo sapiens) (UniProt P21918); assay: Inhibition of dopamine D5 receptor (unknown origin) at 10 uM relative to control
[19] = target: 5-hydroxytryptamine receptor 1A (Homo sapiens) (UniProt P08908); assay: Inhibition of serotonin 5-HT1A receptor (unknown origin) at 10 uM relative to control
[20] = target: 5-hydroxytryptamine receptor 2A (Homo sapiens) (UniProt P28223); assay: Inhibition of serotonin 5-HT2A receptor (unknown origin) at 10 uM relative to control
[21] = target: 5-hydroxytryptamine receptor 2B (Homo sapiens) (UniProt P41595); assay: Inhibition of serotonin 5-HT2B receptor (unknown origin) at 10 uM relative to control
[22] = target: 5-hydroxytryptamine receptor 3A (Homo sapiens) (UniProt P46098); assay: Inhibition of serotonin 5-HT3 receptor (unknown origin) at 10 uM relative to control
[23] = target: 5-hydroxytryptamine receptor 5A (Homo sapiens) (UniProt P47898); assay: Inhibition of serotonin 5-HT5A receptor (unknown origin) at 10 uM relative to control
[24] = target: 5-hydroxytryptamine receptor 6 (Homo sapiens) (UniProt P50406); assay: Inhibition of serotonin 5-HT6 receptor (unknown origin) at 10 uM relative to control
[25] = target: Sodium-dependent dopamine transporter (Homo sapiens) (UniProt Q01959); assay: Inhibition of DAT receptor (unknown origin) at 10 uM relative to control
[26] = target: Sodium-dependent serotonin transporter (Homo sapiens) (UniProt P31645); assay: Inhibition of SERT receptor (unknown origin) at 10 uM relative to control
Homo sapiens = organism: Homo sapiens; assay: Inhibition of GABAA receptor (unknown origin) at 10 uM relative to control
[27] = target: Histamine H1 receptor (Homo sapiens) (UniProt P35367); assay: Inhibition of histamine H1 receptor (unknown origin) at 10 uM relative to control
[28] = target: Histamine H4 receptor (Homo sapiens) (UniProt Q9H3N8); assay: Inhibition of histamine H4 receptor (unknown origin) at 10 uM relative to control
[29] = target: Muscarinic acetylcholine receptor M1 (Homo sapiens) (UniProt P11229); assay: Inhibition of muscarinic M1 receptor (unknown origin) at 10 uM relative to control
[30] = target: Muscarinic acetylcholine receptor M4 (Homo sapiens) (UniProt P08173); assay: Inhibition of muscarinic M4 receptor (unknown origin) at 10 uM relative to control
Chain of Muscarinic acetylcholine receptor M4 (Homo sapiens) (P08173 whole entry): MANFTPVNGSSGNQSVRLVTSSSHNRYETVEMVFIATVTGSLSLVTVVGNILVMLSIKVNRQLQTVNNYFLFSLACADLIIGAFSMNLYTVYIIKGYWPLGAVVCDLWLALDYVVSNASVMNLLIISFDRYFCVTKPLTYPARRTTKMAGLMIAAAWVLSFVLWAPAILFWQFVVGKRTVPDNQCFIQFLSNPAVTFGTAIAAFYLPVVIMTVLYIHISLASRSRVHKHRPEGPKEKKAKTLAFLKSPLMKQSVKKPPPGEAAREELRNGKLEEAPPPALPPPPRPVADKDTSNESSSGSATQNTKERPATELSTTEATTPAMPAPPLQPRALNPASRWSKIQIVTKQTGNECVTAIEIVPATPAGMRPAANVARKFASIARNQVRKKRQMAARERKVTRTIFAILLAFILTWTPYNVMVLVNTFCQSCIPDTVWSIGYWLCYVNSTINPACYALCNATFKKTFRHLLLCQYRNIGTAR

Chain of Alpha-2C adrenergic receptor (Homo sapiens) (P18825 whole entry): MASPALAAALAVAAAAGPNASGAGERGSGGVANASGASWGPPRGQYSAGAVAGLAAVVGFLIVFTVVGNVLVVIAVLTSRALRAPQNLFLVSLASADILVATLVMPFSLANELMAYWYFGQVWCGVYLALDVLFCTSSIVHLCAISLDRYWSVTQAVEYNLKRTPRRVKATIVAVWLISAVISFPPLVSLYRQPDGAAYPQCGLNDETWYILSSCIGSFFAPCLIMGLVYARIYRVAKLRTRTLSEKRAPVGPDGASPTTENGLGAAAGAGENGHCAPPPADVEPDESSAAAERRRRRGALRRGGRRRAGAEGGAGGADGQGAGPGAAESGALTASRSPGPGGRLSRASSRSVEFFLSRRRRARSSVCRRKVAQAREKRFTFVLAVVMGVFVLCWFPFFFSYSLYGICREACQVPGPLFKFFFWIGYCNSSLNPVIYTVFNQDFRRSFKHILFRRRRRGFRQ
Chain of 5-hydroxytryptamine receptor 3A (Homo sapiens) (P46098 whole entry): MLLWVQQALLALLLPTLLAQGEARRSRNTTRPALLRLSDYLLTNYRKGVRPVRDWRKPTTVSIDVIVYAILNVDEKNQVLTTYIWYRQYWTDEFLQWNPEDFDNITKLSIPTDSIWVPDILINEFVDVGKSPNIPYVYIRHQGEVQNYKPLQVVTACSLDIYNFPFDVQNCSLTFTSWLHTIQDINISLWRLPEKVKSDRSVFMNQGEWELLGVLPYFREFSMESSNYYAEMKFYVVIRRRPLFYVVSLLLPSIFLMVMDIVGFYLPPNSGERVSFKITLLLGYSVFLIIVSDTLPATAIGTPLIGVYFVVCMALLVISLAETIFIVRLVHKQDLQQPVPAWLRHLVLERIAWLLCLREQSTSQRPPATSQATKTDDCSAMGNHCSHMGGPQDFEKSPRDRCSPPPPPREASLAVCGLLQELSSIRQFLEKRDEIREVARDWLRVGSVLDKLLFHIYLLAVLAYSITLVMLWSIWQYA
Chain of 5-hydroxytryptamine receptor 1A (Homo sapiens) (P08908 whole entry): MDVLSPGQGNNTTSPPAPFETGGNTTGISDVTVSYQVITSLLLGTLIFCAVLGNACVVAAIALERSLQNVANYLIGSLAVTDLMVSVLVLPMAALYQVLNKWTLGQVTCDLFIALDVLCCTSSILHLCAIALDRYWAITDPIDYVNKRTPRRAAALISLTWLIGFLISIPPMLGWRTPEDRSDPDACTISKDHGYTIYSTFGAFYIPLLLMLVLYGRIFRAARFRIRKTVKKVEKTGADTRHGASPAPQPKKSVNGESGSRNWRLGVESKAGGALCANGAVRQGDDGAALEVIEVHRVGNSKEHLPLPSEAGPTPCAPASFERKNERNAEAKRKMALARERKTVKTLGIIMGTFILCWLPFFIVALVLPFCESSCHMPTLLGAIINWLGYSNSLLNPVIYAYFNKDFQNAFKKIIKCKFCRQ
Chain of 5-hydroxytryptamine receptor 2C (Homo sapiens) (P28335 whole entry): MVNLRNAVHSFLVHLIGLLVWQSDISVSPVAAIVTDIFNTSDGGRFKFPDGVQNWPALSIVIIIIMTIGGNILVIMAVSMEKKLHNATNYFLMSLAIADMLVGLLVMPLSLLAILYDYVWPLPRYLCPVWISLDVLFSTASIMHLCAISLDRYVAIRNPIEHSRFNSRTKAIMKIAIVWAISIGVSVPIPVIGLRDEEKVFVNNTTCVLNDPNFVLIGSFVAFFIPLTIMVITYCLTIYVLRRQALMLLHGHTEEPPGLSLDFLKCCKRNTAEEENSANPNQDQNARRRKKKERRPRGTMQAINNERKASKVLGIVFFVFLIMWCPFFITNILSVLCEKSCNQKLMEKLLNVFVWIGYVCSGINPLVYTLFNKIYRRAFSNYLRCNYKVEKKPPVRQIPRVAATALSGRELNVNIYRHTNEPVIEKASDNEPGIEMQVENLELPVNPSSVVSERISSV
Chain of Sodium-dependent dopamine transporter (Homo sapiens) (Q01959 whole entry): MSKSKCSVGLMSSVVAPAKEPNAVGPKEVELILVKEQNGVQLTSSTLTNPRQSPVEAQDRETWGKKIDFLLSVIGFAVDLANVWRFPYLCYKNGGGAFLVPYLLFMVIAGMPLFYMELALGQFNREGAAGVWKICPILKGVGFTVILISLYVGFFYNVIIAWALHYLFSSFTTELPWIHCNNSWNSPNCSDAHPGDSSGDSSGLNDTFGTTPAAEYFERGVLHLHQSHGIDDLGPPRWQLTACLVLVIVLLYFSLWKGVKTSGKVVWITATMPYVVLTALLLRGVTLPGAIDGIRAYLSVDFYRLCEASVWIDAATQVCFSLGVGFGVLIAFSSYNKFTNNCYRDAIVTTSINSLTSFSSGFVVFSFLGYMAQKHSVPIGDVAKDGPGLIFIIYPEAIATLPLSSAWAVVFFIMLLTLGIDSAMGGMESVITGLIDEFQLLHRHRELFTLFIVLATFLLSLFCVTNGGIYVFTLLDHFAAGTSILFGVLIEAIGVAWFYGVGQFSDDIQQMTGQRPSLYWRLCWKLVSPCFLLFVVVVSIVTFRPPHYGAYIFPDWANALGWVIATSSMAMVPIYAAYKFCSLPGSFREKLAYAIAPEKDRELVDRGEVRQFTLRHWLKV
Chain of D(1A) dopamine receptor (Homo sapiens) (P21728 whole entry): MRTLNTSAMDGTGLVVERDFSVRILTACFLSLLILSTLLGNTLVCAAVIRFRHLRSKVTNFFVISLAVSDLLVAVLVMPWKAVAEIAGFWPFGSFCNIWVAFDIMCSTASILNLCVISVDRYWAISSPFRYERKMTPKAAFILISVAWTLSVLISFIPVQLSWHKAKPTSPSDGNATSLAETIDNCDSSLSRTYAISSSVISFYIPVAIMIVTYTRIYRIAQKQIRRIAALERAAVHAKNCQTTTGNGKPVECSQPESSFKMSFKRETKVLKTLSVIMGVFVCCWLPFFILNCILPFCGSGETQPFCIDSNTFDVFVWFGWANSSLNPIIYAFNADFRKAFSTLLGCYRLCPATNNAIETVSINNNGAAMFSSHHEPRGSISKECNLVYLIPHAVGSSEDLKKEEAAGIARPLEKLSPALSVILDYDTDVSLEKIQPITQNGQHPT
Chain of Muscarinic acetylcholine receptor M1 (Homo sapiens) (P11229 whole entry): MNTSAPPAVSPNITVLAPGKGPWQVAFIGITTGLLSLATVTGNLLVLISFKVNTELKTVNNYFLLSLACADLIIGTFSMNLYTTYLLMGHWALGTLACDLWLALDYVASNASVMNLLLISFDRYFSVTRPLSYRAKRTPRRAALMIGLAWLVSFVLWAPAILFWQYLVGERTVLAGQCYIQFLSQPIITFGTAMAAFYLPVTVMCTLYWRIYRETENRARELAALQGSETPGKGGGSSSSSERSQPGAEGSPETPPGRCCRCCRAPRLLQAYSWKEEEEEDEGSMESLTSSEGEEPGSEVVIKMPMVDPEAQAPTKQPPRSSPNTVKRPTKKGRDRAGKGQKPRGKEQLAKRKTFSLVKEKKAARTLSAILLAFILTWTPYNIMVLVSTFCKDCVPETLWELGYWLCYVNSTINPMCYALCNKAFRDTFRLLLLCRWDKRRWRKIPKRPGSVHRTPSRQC
Chain of D(1B) dopamine receptor (Homo sapiens) (P21918 whole entry): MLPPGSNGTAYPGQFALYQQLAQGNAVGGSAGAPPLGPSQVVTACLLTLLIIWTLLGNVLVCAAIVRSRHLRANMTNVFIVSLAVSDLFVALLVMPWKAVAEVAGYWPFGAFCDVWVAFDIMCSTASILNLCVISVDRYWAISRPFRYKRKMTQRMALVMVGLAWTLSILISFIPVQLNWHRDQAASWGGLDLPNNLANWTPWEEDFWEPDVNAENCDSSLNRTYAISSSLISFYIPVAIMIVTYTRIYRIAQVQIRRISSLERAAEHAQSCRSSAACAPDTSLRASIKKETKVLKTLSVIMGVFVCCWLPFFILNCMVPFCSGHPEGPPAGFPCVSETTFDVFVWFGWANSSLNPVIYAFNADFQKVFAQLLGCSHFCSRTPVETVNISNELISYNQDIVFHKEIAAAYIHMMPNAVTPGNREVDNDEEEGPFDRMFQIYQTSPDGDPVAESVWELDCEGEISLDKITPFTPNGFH
Chain of Histamine H1 receptor (Homo sapiens) (P35367 whole entry): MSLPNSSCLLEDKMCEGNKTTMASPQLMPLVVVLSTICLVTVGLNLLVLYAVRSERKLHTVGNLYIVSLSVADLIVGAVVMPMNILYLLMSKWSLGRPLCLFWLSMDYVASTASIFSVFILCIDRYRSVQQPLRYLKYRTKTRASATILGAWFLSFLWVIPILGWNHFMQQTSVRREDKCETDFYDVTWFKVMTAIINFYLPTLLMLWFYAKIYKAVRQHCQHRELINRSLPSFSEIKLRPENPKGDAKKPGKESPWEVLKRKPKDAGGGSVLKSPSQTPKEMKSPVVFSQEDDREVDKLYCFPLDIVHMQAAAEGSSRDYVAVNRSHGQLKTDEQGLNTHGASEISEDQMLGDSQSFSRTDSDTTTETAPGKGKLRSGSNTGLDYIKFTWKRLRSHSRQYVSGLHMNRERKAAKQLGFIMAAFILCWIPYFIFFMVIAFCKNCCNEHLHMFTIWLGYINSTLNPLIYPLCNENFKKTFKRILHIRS
Chain of Sigma intracellular receptor 2 (Q5BJF2 whole entry): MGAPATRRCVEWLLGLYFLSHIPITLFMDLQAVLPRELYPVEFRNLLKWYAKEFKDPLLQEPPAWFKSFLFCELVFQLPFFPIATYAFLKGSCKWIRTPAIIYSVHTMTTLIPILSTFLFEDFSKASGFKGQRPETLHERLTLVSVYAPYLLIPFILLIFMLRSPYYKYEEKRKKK

Structure (SMILES): O=C(Nc1ccc(-c2nc(-c3ccc(Cl)cc3)no2)cc1)C1CC(=O)N(Cc2ccco2)C1 (stereo not drawn)
- Tmax [1]: 0.5 h
- Tmax [2]: 2 h
- CL free [3]: 43.8 mL/min/kg
- t1/2 [4]: 1.9 h
- AUC [5]: 5352 ng·h/mL
- Activity [6]: Active
- IC50 (Relaxin-3 receptor 1): 13.9 µM
- Activity [7]: < 30%
- Activity (Rattus norvegicus): Active
- Ratio [8]: 1
- inhibition [9]: 53%
- Ki [10]: 3.2 µM
- inhibition [11]: < 50%
- inhibition [12]: < 50%
- inhibition [13]: < 50%
- inhibition [14]: < 50%
- inhibition [15]: < 50%
- inhibition [16]: < 50%
- inhibition [17]: < 50%
- inhibition [18]: < 50%
- inhibition [19]: < 50%
- inhibition [20]: < 50%
- inhibition [21]: < 50%
- inhibition [22]: < 50%
- inhibition [23]: < 50%
- inhibition [24]: < 50%
- inhibition [25]: < 50%
- inhibition [26]: < 50%
- inhibition (Homo sapiens): < 50%
- inhibition [27]: < 50%
- inhibition [28]: < 50%
- inhibition [29]: < 50%
- inhibition [30]: < 50%

Source: ChEMBL document CHEMBL5154921, “Discovery and Characterization of the First Nonpeptide Antagonists for the Relaxin-3/RXFP3 System” (J Med Chem, 2022)
